From PMC6470795 (Molecules, 2019)
Where two headings read alike, the source gives them in different places.

Key:
[1] = test system: hepatic carcinoma 97H cells; assay: MTT antiproliferative assay, 97H cells; type: cell-based, human; conditions: read-out: IC50 of Against 97H cells
Excerpt: (§1) The cell lines, 97H (human liver cancer cell), Pc9 (human non-small cell lung cancer), HELA (human epithelial cervical cancer cell line), SJSA1 (human osteosarcoma cells), LO2 (human normal liver cells), and HLF (human embryonic lung fibroblast), used in this study were purchased from the Guangzhou ginny ou Biotechnology Co. Ltd. (Guangzhou, China). Cell lines were cultivated in Dulbecco’s Modified Eagle Medium (DMEM) containing 10% (v/v) heat-inactivated fetal bovine serum (FBS), 100 units/mL penicillin, and 100 μg/mL streptomycin.
(§2) For the cytotoxicity assay, the cells grown in the logarithmic phase were seeded into 96-well plates (5 × 10^3 cells/well) for 24 h, and then exposed to different concentrations of the test compounds for 48 h. After the attached cells had been incubated with 5 mg/mL MTT (Sigma, St. Louis, MO, USA) for another 4 h, the suspension was discarded and subsequently the dark blue crystals (formazan) were solubilized in dimethyl sulfoxide (DMSO). Then, the absorbance was measured at 570 nm using a multifunction microplate reader (Molecular Devices, Flex Station 3) (Thermo Fisher Scientific, San Jose, CA, USA), and each experiment was performed at least in triplicate.

[2] = test system: Hela (human epithelial cervical cancer cells); assay: MTT antiproliferative assay, Hela cells; type: cell-based; conditions: HeLa, 48 h, read-out: IC50 Hela
Excerpt: as §1, §2

[3] = test system: LO2 (human normal liver cells); assay: MTT assay, LO2 normal cells; type: cell-based; conditions: 48 h, read-out: IC50 LO2
Excerpt: as §1, §2

[4] = test system: HLF (human embryonic lung fibroblast cells); assay: MTT assay, HLF normal cells; type: cell-based; conditions: 48 h, read-out: IC50 HLF
Excerpt: as §1, §2

[5] = test system: Pc9 (human non-small cell lung cancer cells); assay: MTT antiproliferative assay, Pc9 cells; type: cell-based; conditions: PC-9, 48 h, read-out: IC50 Pc9
Excerpt: as §1, §2

[6] = test system: SJSA1 (human osteosarcoma cells); assay: MTT antiproliferative assay, SJSA1 cells; type: cell-based; conditions: SJSA-1, 48 h, read-out: IC50 SJSA1
Excerpt: as §1, §2

[7] = Homo sapiens, 97H cells, MTT, 48 h

Question: With `C[C@H](c1cccc(-c2ncc(OCC3CCN(C)CC3)cn2)c1)n1cc(-c2cccc(C#N)c2)cnc1=O` [(R)-31e] as the compound, how does the IC50 [1, 7] read?
Answer: 18 ± 6 nM

Question: For `C[C@@H](c1cccc(-c2ncc(OCC3CCN(C)CC3)cn2)c1)n1cc(-c2cccc(C#N)c2)cnc1=O` [(S)-31e], which IC50 [1, 7] is on record?
Answer: 1830 ± 26 nM

Question: With `CN(C)CCCSc1cnc(-c2cccc(Cn3cc(-c4cccc(C#N)c4)ncc3=O)c2)nc1` [Compound 11a, 5-(3-cyanophenyl)-1-(3-(5-((3-(dimethylamino)propyl)thio)pyrimidin-2-yl)benzyl)pyrazin-2(1H)-one] as the compound, how does the IC50 ([1]; 97H cells, MTT, 48 h) read?
Answer: 9810 ± 790 nM

Question: What about the IC50 [1, 7] of the same compound?
Answer: 9800 nM

Question: What about the melting point of the same compound?
Answer: 106.3 to 107.9 °C

Question: Which results are given for `CN(C)CCCSc1cnc(-c2cccc(Cn3cc(-c4cc(F)cc(F)c4)ncc3=O)c2)nc1` [Compound 11b, 5-(3,5-difluorophenyl)-1-(3-(5-((3-(dimethylamino)propyl)thio)pyrimidin-2-yl)benzyl)pyrazin-2(1H)-one]?
Answer: IC50 [1, 7]: 9100 ± 670 nM; melting point: 143.7 to 145.2 °C

Question: With `CN(C)CCCSc1cnc(-c2cccc(Cn3cc(-c4cccc(C#N)c4)cnc3=O)c2)nc1` [Compound 18, 5-(3-cyanophenyl)-1-(3-(5-((3-(dimethylamino)propyl)thio)pyrimidin-2-yl)benzyl)pyrimidin-2(1H)-one] as the compound, how does the IC50 ([1]; 97H cells, MTT, 48 h) read?
Answer: 443 ± 4 nM

Question: And the IC50 [1, 7]?
Answer: 360 to 550 nM

Question: Which IC50 [1, 7] does the source give for `CN(C)CCCOc1cnc(-c2cccc(Cn3cc(-c4cccc(C#N)c4)cnc3=O)c2)nc1` [Compound 22, 5-(3-cyanophenyl)-1-(3-(5-(3-(dimethylamino)propoxy)pyrimidin-2-yl)benzyl)pyrimidin-2(1H)-one] here?
Answer: 559 ± 18 nM

Question: For `CN1CCC(COc2cnc(-c3cccc(Cn4cc(-c5cccc(C#N)c5)cnc4=O)c3)nc2)CC1` [Compound 25, 5-(3-cyanophenyl)-1-(3-(5-((1-methylpiperidin-4-yl)methoxy)pyrimidin-2-yl)benzyl)pyrimidin-2(1H)-one], which IC50 ([1]; 97H cells, MTT, 48 h) is on record?
Answer: 361 ± 12 nM

Question: And the IC50 [1, 7]?
Answer: 360 to 550 nM

Question: And the melting point?
Answer: 116.7 to 118.2 °C

Question: Which IC50 [1, 7] does the source give for `CC(c1cccc(-c2ncc(SCCN(C)C)cn2)c1)n1cc(-c2cccc(C#N)c2)cnc1=O` (stereo not shown) [Compound 31a, 5-(3-cyanophenyl)-1-(1-(3-(5-((2-(dimethylamino)ethyl)thio)pyrimidin-2-yl)phenyl)ethyl)pyrimidin-2(1H)-one] here?
Answer: 186 ± 7 nM

Question: For `CC(c1cccc(-c2ncc(SCCCN(C)C)cn2)c1)n1cc(-c2cccc(C#N)c2)cnc1=O` (stereo not shown) [Compound 31b, 5-(3-cyanophenyl)-1-(1-(3-(5-((3-(dimethylamino)propyl)thio)pyrimidin-2-yl)phenyl)ethyl)pyrimidin-2(1H)-one], which IC50 [1, 7] is on record?
Answer: 149 ± 12 nM

Question: With `CC(c1cccc(-c2ncc(OCCCN(C)C)cn2)c1)n1cc(-c2cccc(C#N)c2)cnc1=O` (stereo not shown) [Compound 31c, 5-(3-cyanophenyl)-1-(1-(3-(5-(3-(dimethylamino)propoxy)pyrimidin-2-yl)phenyl)ethyl)pyrimidin-2(1H)-one] as the compound, how does the IC50 [1, 7] read?
Answer: 216 ± 87 nM

Question: What about the melting point of the same compound?
Answer: 68.3 to 69.9 °C

Question: Which results are given for `CC(c1cccc(-c2ncc(OCCN(C)C)cn2)c1)n1cc(-c2cccc(C#N)c2)cnc1=O` (stereo not shown) [Compound 31d, 5-(3-cyanophenyl)-1-(1-(3-(5-(2-(dimethylamino)ethoxy)pyrimidin-2-yl)phenyl)ethyl)pyrimidin-2(1H)-one]?
Answer: IC50 [1, 7]: 196 ± 56 nM; melting point: 53.3 to 55 °C

Question: Which IC50 [1, 7] does the source give for `CC(c1cccc(-c2ncc(OCCN3CCOCC3)cn2)c1)n1cc(-c2cccc(C#N)c2)cnc1=O` (stereo not shown) [Compound 31f, 5-(3-cyanophenyl)-1-(1-(3-(5-(2-morpholinoethoxy)pyrimidin-2-yl)phenyl)ethyl)pyrimidin-2(1H)-one] here?
Answer: 248 ± 34 nM

Question: What does the source list for `CC(c1cccc(-c2ncc(OCC3CCN(C)CC3)cn2)c1)n1cc(-c2cc(F)cc(F)c2)cnc1=O` (stereo not shown) [Compound 31g, 5-(3,5-difluorophenyl)-1-(1-(3-(5-((1-methylpiperidin-4-yl)methoxy)pyrimidin-2-yl)phenyl)ethyl)pyrimidin-2(1H)-one]?
Answer: IC50 [1, 7]: 332 ± 44 nM; melting point: 86.9 to 88.6 °C

Question: Which IC50 [1, 7] does the source give for `CN(C)CCCSc1cnc(-c2cccc(Cn3cc(-c4cccc(C#N)c4)cc(F)c3=O)c2)nc1` [Compound 36a, 5-(3-cyanophenyl)-1-(3-(5-((3-(dimethylamino)propyl)thio)pyrimidin-2-yl)benzyl)-3-fluoropyridin-2(1H)-one] here?
Answer: 149 ± 35 nM

Question: And the melting point?
Answer: 116.3 to 117.9 °C

Question: For `CN(C)CCCSc1cnc(-c2cccc(Cn3cc(-c4cncc(F)c4)cc(F)c3=O)c2)nc1` [Compound 36b, 1-(3-(5-((3-(dimethylamino)propyl)thio)pyrimidin-2-yl)benzyl)-5,5′-difluoro-[3,3′-bipyridin]-6(1H)-one], which IC50 [1, 7] is on record?
Answer: 3810 ± 45 nM

Question: And the melting point?
Answer: 128.3 to 129.9 °C

Question: Which IC50 [1, 7] does the source give for `CN(C)CCCSc1cnc(-c2cccc(Cn3cc(-c4cncnc4)cc(F)c3=O)c2)nc1` [Compound 36c, 1-(3-(5-((3-(dimethylamino)propyl)thio)pyrimidin-2-yl)benzyl)-3-fluoro-5-(pyrimidin-5-yl)pyridin-2(1H)-one] here?
Answer: 671 ± 56 nM

Question: Which IC50 [1, 7] does the source give for `CC(c1cccc(-c2ncc(SCCCN(C)C)cn2)c1)n1cc(-c2cccc(C#N)c2)cc(F)c1=O` (stereo not shown) [Compound 39, 5-(3-cyanophenyl)-1-(1-(3-(5-((3-(dimethylamino)propyl)thio)pyrimidin-2-yl)phenyl)ethyl)-3-fluoropyridin-2(1H)-one] here?
Answer: 206 ± 13 nM

Question: With `CN1CCC(COc2cnc(-c3cccc(Cn4nc(-c5cccc(C#N)c5)ccc4=O)c3)nc2)CC1` [Tepotinib, reference compound] as the compound, how does the IC50 ([1]; Homo sapiens) read?
Answer: 13 ± 8 nM

Question: And the IC50 [2]?
Answer: 11200 ± 320 nM

Question: What about the IC50 [3] of the same compound?
Answer: 10300 ± 460 nM

Question: What about the IC50 [4] of the same compound?
Answer: 9440 ± 150 nM

Question: What about the IC50 [5] of the same compound?
Answer: 8105 ± 12 nM

Question: What about the IC50 [6] of the same compound?
Answer: 12200 ± 350 nM
